Source: patent publication US5360803A, “Composition and method for treating cancer” (Dan Farber Cancer Institute, priority 1992, dated 1994)
Like-named read-outs stand apart in the source and are kept apart here.

What was measured:
[1] = tested on: CV-1 cells; assay: selective killing assay, colony number reduced to 50% of control, normal monkey kidney epithelial cell line CV-1; type: cell-based; conditions: 24 hours treatment; for IC50: Primates
Excerpt: (§1) The control received culture media only.

[2] = tested on: CX-1 cells; assay: selective killing assay, colony number reduced to 50% of control, human colon carcinoma cell line CX-1; type: cell-based; conditions: for Selectivity (ratio of IC50 for CV-1 and IC50 for CX-1): CV-1/CX-1; for IC50: Homo sapiens;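 on all read-outs here: colonies stained with crystal violet and counted, control cells given medium alone, exposure at 37 °C, normal monkey kidney epithelial CV-1 cells as the non-cancer comparator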
[3] = tested on: EJ cells; assay: colony assay of Example 1 with human bladder carcinoma EJ cell line; type: cell-based; conditions: for Selectivity: CV-1/EJ; for IC50: Homo sapiens, EJ, 24 h;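 on all read-outs here: colony formation assay with 24 h compound exposure at 37 °C, then 7–10 days drug-free regrowth, colonies stained with crystal violet, controls given medium alone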
[4] = tested on: LOX cells; assay: colony assay of Example 1 with human melanoma LOX cell line; type: cell-based; conditions: for Selectivity: CV-1/LOX; for IC50: Homo sapiens, LOX, 24 h; for IC50 / LOX(IC50): Table V, human melanoma, 24 hours treatment;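 on all read-outs here: colony formation assay with 24 h exposure at 37 °C, then 7 to 10 days of regrowth, crystal violet staining of colonies, control wells given medium alone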
Method: (§2) Human colon carcinoma cell line CX-1 or normal monkey kidney epithelial cell line CV-1 was chosen as representatives of cancer cells and normal cells, respectively. […] CX-1 cells (2,000 cells/well) and CV-1 cells (1,000 cells/well) were plated in 24-well plastic culture plates. […] The control received culture media only. Cells were treated with compounds of General Formulas (I) to (V) at 37° C. for 24 hours. After rinsing with fresh culture medium three times, the cells were further incubated at 37° C. for 7 to 10 days. Cell colonies were fixed and stained with 2% crystal violet in 70% ethanol for 10 minutes and rinsed in water. […] The selectivity is defined as the ratio of IC50 for CV-1 and IC50 for CX-1.

[5] = tested on: MCF-7 cells; assay: colony assay of Example 1 with human breast carcinoma MCF-7 cell line; type: cell-based; conditions: for Selectivity: CV-1/MCF-7; for IC50: Homo sapiens, MCF7, 24 h; for IC50 / MCF-7(IC50): Table VI, human breast carcinoma, 24 hours treatment
Excerpt: as §1

[6] = tested on: human melanoma LOX; assay: survival of nude mice implanted with human melanoma LOX; type: in vivo, male athymic Swiss nu/nu mouse (human tumor); conditions: Mus musculus, ip, 24 h, read-out: T/C
Method: LOX, a human melanoma cell line, grown subcutaneously in nude mice was excised, trypsinized to yield a single cell suspension using a metal grid with a […] mesh. […] Five million viable trypan blue negative cells made up in 0.1 ml of Dulbecco modified Eagle medium (DMFE) were injected into the peritoneal cavity of a male athymic Swiss nu/nu mouse. The control group and each treatment group consisted of 5 to 10 mice. Treatment was commenced the following day by intraperitoneal injection.
Ten control mice received 0.25 ml of 2% dextrose on these days the treated groups were injected with the compounds of this invention. […] T/C is the ratio, expressed as a percentage of the mean survival age of the treated group to the mean survival age of the untreated control group.

[7] = tested on: CRL 1420 cells; assay: colony assay of Example 1 with human pancreatic carcinoma CRL 1420 cell line; type: cell-based; conditions: for Selectivity: CV-1/CRL-1420; for IC50: Homo sapiens, 24 h; for IC50 / CRL-1420(IC50): Table VII, human pancreatic carcinoma, 24 hours treatment;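 on all read-outs here: colony formation assay, cells exposed for 24 h then regrown 7 to 10 days without compound, colonies stained with crystal violet, control given medium alone, normal reference CV-1 monkey kidney epithelial cells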
Method: as §2

[8] = CV-1, Table III, normal monkey kidney epithelial cells, colony count after 7 to 10 days
[9] = CX-1, Table III, human colon carcinoma, 24 hours treatment, colony count after 7 to 10 days
[10] = Table IV, human bladder carcinoma, 24 hours treatment
[11] = 5 mg/kg i.p. on day 1, 4, 8, 11, 15

Structure (SMILES) | IC50 ([1]; CV-1, 24 h, Table IV) | IC50 ([1]; CV-1, 24 h, Table V) | IC50 ([1]; CV-1, 24 h, Table VI) | IC50 [1, 8] | Selectivity (ratio of IC50 for CV-1 and IC50 for CX-1) [2] | IC50 [2, 9] | Selectivity [3] | IC50 [3, 10] | Selectivity [4] | IC50 [4] | Selectivity [5] | IC50 [5] | IC50 ([1]; CV-1, 24 h, Table VII) | Selectivity [7] | CRL-1420(IC50) [7] | also measured
CCn1c(=Cc2oc3ccc4ccccc4c3[n+]2CC)sc(=C2Sc3ccccc3N2C)c1=O [Compound 337] | 8 µg/mL | 8 µg/mL | 8 µg/mL | 8 µg/mL | 100 | 0.08 µg/mL | 267 | 0.03 µg/mL | 800 | 0.01 µg/mL | 160 | 0.05 µg/mL |  |  |  | response vs control in vivo at 5 mg/kg ([6]; 5 mg/kg i.p. on day 1, 3, 4, 6, 8, 10, 13): 137%
CCn1c(=CC2=[N+](CC)CCS2)sc(=C2SC3=C(CCCC3)N2C)c1=O [Compound 340] |  |  | 20 µg/mL |  |  |  |  |  |  |  | 200 | 0.1 µg/mL |  |  |  | response vs control in vivo at 8 mg/kg ([6]; 8 mg/kg i.p. on day 1, 3, 8, 13): 194%
CCn1c(=Cc2oc3ccc4ccccc4c3[n+]2CC)sc(=C2Oc3c(ccc4ccccc34)N2C)c1=O [Compound 253] | 6 µg/mL | 6 µg/mL | 6 µg/mL | 6 µg/mL | 120 | 0.05 µg/mL | 300 | 0.02 µg/mL | 1200 | 0.005 µg/mL | 200 | 0.03 µg/mL | 6 µg/mL | 200 |  | IC50 [7]: 0.03 µg/mL
CCn1c(=Cc2sc3c4ccccc4ccc3[n+]2CC)sc(=C2Sc3ccc4ccccc4c3N2C)c1=O [Compound 82] | 20 µg/mL | 20 µg/mL | 20 µg/mL | 20 µg/mL | 400 | 0.05 µg/mL | 1333 | 0.015 µg/mL | 312 | 0.064 µg/mL | 312 | 0.064 µg/mL | 20 µg/mL | 1333 | 0.015 µg/mL | response vs control in vivo at 5 mg/kg [6, 11]: 142%
CCn1c(=Cc2sc3ccccc3[n+]2CC)sc(=C2Sc3ccccc3N2C)c1=O [Compound 2] |  | 10 µg/mL | 10 µg/mL | 10 µg/mL | 333 |  | 200 | 0.02 µg/mL | 667 |  | 111 |  | 10 µg/mL | 1000 | 0.01 µg/mL | CV-1 (IC50) ([1]; Table IV): 4 µg/mL; IC50 ([2]; CX-1): 0.03 µg/mL; LOX(IC50) [4]: 0.015 µg/mL; MCF-7(IC50) [5]: 0.09 µg/mL; response vs control in vivo at 5 mg/kg [6, 11]: 163%
CCn1c(=CC2=[N+](CC)CCS2)sc(=C2Sc3ccccc3N2C)c1=O [Compound 335] |  |  |  |  | 200 |  | 200 |  | 667 |  | 100 |  |  | 500 | 0.04 µg/mL | CV-1 (IC50) ([1]; Table III, normal monkey kidney epithelial cells, colony count after 7 to 10 days): 26 µg/mL; CV-1 (IC50) ([1]; Table IV): 20 µg/mL; CV-1 (IC50) ([1]; Table V): 20 µg/mL; CV-1 (IC50) ([1]; Table VI): 20 µg/mL; CV-1 (IC50) ([1]; Table VII): 20 µg/mL; CX-1 (IC50) ([2]; Table III, human colon carcinoma, 24 hours treatment, colony count after 7 to 10 days): 0.1 µg/mL; EJ (IC50) [3, 10]: 0.1 µg/mL; LOX(IC50) [4]: 0.03 µg/mL; MCF-7(IC50) [5]: 0.2 µg/mL; response vs control in vivo at 5 mg/kg ([6]; 5 mg/kg i.p. on day 1, 5, 8, 11, 14): 189%
CCn1c(=CC2=[N+](CC)CCS2)sc(=C2Oc3ccc4ccccc4c3N2C)c1=O [Compound 215] |  | 20 µg/mL | 20 µg/mL | 10 µg/mL | 200 | 0.05 µg/mL |  |  | 500 | 0.04 µg/mL | 200 | 0.1 µg/mL | 20 µg/mL | 222 |  | IC50 [7]: 0.09 µg/mL; response vs control in vivo at 3 mg/kg ([6]; 3 mg/kg i.p. on day 1, 4, 8, 10, 12): 167%
